A value given as a limit tells only on which side of the number the result lay.

The target in this assay is ROCK2 (Homo sapiens, UniProt O75116). The assay can be described thus: ROCK2 kinase inhibition assay (Caliper LABCHIP, FITC peptide substrate). As to conditions: 5 μM ATP, 1.5 μM peptide substrate; value ranges. It is filed as biochemical. Summed up: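 Dose-response curves gave IC50 from inhibition of peptide phosphorylation, measured by LabChip separation after EDTA stop. Reactions used 1.5 μM FITC-labelled peptide, 5 μM ATP, 20 mM HEPES pH 7.5 with MgCl2, Brij-35, DTT, and under 2% DMSO.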
Sequence of ROCK2 (O75116 whole entry, species assumed): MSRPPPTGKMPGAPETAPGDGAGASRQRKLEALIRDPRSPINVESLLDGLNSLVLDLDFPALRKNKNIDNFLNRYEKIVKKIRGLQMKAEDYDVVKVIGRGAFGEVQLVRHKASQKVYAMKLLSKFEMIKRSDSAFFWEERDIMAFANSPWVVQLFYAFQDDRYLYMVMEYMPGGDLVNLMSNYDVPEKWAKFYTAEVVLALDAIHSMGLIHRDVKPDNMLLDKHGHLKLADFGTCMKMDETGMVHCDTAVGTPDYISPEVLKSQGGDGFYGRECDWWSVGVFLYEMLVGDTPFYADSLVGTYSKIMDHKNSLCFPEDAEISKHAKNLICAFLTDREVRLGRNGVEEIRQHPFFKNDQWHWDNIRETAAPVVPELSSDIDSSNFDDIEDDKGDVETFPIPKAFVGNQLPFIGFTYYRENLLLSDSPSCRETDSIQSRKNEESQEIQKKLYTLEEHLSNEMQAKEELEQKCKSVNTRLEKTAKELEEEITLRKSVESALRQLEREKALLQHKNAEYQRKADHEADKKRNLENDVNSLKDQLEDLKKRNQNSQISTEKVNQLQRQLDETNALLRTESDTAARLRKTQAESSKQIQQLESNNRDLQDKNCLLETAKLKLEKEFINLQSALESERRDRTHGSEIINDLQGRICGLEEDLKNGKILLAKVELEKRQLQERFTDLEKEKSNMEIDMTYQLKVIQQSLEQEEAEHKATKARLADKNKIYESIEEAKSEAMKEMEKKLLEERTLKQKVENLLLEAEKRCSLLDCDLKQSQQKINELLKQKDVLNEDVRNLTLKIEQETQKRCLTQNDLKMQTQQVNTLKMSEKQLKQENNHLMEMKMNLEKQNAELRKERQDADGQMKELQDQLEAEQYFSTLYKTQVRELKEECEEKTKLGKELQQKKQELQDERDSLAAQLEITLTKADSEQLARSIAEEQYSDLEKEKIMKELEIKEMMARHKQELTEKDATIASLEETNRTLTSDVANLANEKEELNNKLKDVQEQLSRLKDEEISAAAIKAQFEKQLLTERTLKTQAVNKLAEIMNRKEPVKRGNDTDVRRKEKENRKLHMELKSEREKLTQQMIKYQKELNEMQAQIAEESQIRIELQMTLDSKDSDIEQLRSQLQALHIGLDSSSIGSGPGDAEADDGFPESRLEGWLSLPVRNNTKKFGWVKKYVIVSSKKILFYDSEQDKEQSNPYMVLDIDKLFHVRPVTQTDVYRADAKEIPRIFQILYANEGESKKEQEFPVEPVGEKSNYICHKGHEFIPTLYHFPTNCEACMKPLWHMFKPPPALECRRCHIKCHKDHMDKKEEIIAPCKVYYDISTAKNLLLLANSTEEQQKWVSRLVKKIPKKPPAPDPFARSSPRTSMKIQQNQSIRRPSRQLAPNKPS
By IC50 is commonly meant the concentration that gives 50% inhibition. For the compound `COc1cccc(C(C)n2ccn(-c3ccc(-c4ccnc(F)c4)cc3)c2=O)c1` (single isomer, unassigned) [Example 327, 1-(4-(2-fluoropyridin-4-yl)phenyl)-3-(1-(3-methoxyphenyl)ethyl)-1H-imidazol-2(3H)-one], the IC50 is 0.2 to 2 µM.
`COc1cccc(C(C)n2ccn(-c3ccc(-c4ccncc4F)cc3)c2=O)c1` (single isomer, unassigned) [Example 387, 1-(4-(3-fluoropyridin-4-yl)phenyl)-3-(1-(3-methoxyphenyl)ethyl)-1H-imidazol-2(3H)-one] showed a concentration for half-maximal inhibition (IC50) of 0.0201 to 0.2 µM.
For the compound `COc1cccc(C(C)n2ccn(-c3ccc(-c4cn[nH]c4)c(OC)n3)c2=O)c1` (single isomer, unassigned) [Example 401, 1-(6-methoxy-5-(1H-pyrazol-4-yl)pyridin-2-yl)-3-(1-(3-methoxyphenyl)ethyl)-1H-imidazol-2(3H)-one], the IC50 fell in the range of 0.0021 to 0.02 µM.
`COc1cccc(Cn2ccn(-c3ccc(-c4cn[nH]c4)cn3)c2=O)c1` [Example 344, 1-(5-(1H-pyrazol-4-yl)pyridin-2-yl)-3-(3-methoxybenzyl)-1H-imidazol-2(3H)-one] displayed an IC50 of 0.0021 to 0.02 µM.
The same measure for `CCc1nc(N2CCN(Cc3ccc(F)c(OC)c3)C2=O)ccc1-c1cn[nH]c1` [Example 170, 1-(6-ethyl-5-(1H-pyrazol-4-yl)pyridin-2-yl)-3-(4-fluoro-3-methoxy-benzyl) imidazolidin-2-one]: 0.0021 to 0.02 µM; for `CCOc1cccc(C(C)n2ccn(-c3ccc(-c4cn[nH]c4)c(CC)n3)c2=O)c1` (single isomer, unassigned) [Example 364, 1-(1-(3-ethoxyphenyl)ethyl)-3-(6-ethyl-5-(1H-pyrazol-4-yl)pyridin-2-yl)-1H-imidazol-2(3H)-one]: 0.0201 to 0.2 µM; for `COc1cccc(Cn2ccn(-c3ccc(-c4cn[nH]c4)cc3)c2=O)c1` [Example 334, l-(4-(1H-pyrazol-4-yl)phenyl)-3-(3-methoxybenzyl)-1H-imidazol-2(3H)-one]: below 0.002 µM.
In turn, `COc1cc(-c2cn[nH]c2)ccc1N1CCN(CCc2ccccc2F)C1=O` [Example 11, 1-(2-Fluorophenethyl)-3-(2-methoxy-4-(1H-pyrazol-4-yl)phenyl)imidazolidin-2-one] registered an IC50 of 0.0201 to 0.2 µM.
The same measure for `O=C1CN(Cc2ccccc2F)C(=O)N1c1ccc(-c2cn[nH]c2)cc1` [Example 86, 3-(4-(1H-pyrazol-4-yl)phenyl)-1-(2-fluorobenzyl)imidazolidine-2,4-dione]: 0.2 to 2 µM; for `COc1nc(-n2ccn(Cc3ccc(F)cc3F)c2=O)ccc1-c1cn[nH]c1` [Example 414, 1-(2,4-difluorobenzyl)-3-(6-methoxy-5-(1H-pyrazol-4-yl)pyridin-2-yl)-1H-imidazol-2(3H)-one]: 0.0201 to 0.2 µM; for `COc1cc(F)cc(C(C)N2CCN(c3ccc(-c4cn[nH]c4)c(OC)n3)C2=O)c1` (single isomer, unassigned) [Example 228, 1-(1-(3-fluoro-5-methoxyphenyl)ethyl)-3-(6-methoxy-5-(1H-pyrazol-4-yl)pyridin-2-yl)imidazolidin-2-one]: below 0.002 µM.
`COc1cccc(CN2CC(C(=O)O)N(c3ccc(-c4cn[nH]c4)cc3)C2=O)c1` (centres unmarked) [Example 35, 3-(4-(1H-Pyrazol-4-yl)phenyl)-1-(3-methoxybenzyl)-2-oxoimidazolidine-4-carboxylic Acid]: the IC50 was 0.0201 to 0.2 µM.
In the case of `CCc1cc(-n2ccn(Cc3ccc(F)c(OC)c3)c2=O)ccc1-c1cn[nH]c1` [Example 348, 1-(3-ethyl-4-(1H-pyrazol-4-yl)phenyl)-3-(4-fluoro-3-methoxybenzyl)-1H-imidazol-2(3H)-one] it was 0.0201 to 0.2 µM.
For `COc1cccc(CN2CCN(c3ccc(-c4ncnc5[nH]ccc45)cc3)C2=O)c1` [Example 64, 1-(4-(7H-Pyrrolo[2,3-d]pyrimidin-4-yl)phenyl)-3-(3-methoxybenzyl)imidazolidin-2-one], the IC50 was in the range of 0.2 to 2 µM.
In the case of `COc1cc(N2C(=O)CN(Cc3cccc(F)c3)C2=O)ccc1-c1cn[nH]c1` [Example 90, 1-(3-fluorobenzyl)-3-(3-methoxy-4-(1H-pyrazol-4-yl)phenyl)imidazolidine-2,4-dione] it was 0.0201 to 0.2 µM; in that of `CCc1nc(N2CCN(Cc3cccc(OCC4CC4)c3)C2=O)ccc1-c1cn[nH]c1` [Example 169, 1-(3-(cyclo-propyl-methoxy)-benzyl)-3-(6-ethyl-5-(1H-pyrazol-4-yl)pyridin-2-yl)-imidazolidin-2-one], 0.0201 to 0.2 µM; in that of `O=C(O)C1CN(c2ccc(-c3cn[nH]c3)cc2)C(=O)N1Cc1cccc(F)c1` (centres unmarked) [Example 32, 1-(4-(1H-Pyrazol-4-yl)phenyl)-3-(3-fluorobenzyl)-2-oxoimidazolidine-4-carboxylic Acid], 0.2 to 2 µM.
In turn, `Cc1c(F)cccc1Cn1ccn(-c2ccc(-c3cn[nH]c3)cc2)c1=O` [Example 402, 1-(4-(1H-pyrazol-4-yl)phenyl)-3-(3-fluoro-2-methylbenzyl)-1H-imidazol-2(3H)-one] showed an IC50 of 0.0021 to 0.02 µM.
Consider `COc1cccc(C(C)n2ccn(-c3ccc(-c4cn[nH]c4)cc3)c2=O)c1` (single isomer, unassigned) [Example 340, 1-(4-(1H-pyrazol-4-yl)phenyl)-3-(l-(3-methoxyphenyl)ethyl)-1H-imidazol-2(3H)-one], for which the half-maximal inhibitory concentration (IC50) fell in the range of 0.0201 to 0.2 µM.
In the case of `COc1cccc(C(C(=O)NC2CC2)N2CCN(c3ccc(-c4cn[nH]c4)cc3)C2=O)c1` (single isomer, unassigned) [Example 301, 2-(3-(4-(1H-pyrazol-4-yl)phenyl)-2-oxoimidazolidin-1-yl)-N-cyclopropyl-2-(3-methoxyphenyl)acetamide] it was 0.0021 to 0.02 µM; in that of `COc1cccc(C(C)n2ccn(-c3ccc(-c4cn[nH]c4)cn3)c2=O)c1` (single isomer, unassigned) [Example 355, 1-(5-(1H-pyrazol-4-yl)pyridin-2-yl)-3-(1-(3-methoxyphenyl)ethyl)-1H-imidazol-2(3H)-one], below 0.002 µM; in that of `CCc1nc(N2CCN(C(C)c3cc(F)cc(OC)c3)C2=O)ccc1-c1cn[nH]c1` (single isomer, unassigned) [Example 269, 1-(6-ethyl-5-(1H-pyrazol-4-yl)pyridin-2-yl)-3-(1-(3-fluoro-5-methoxyphenyl)ethyl)imidazolidin-2-one], 0.0201 to 0.2 µM.
In turn, `CC1(C)CN(c2ccc(-c3cn[nH]c3)cn2)C(=O)N1Cc1cccc(OCC2CC2)c1` [Example 452, 1-(5-(1H-pyrazol-4-yl)pyridin-2-yl)-3-(3-(cyclopropylmethoxy)benzyl)-4,4-dimethylimidazolidin-2-one] came in with an IC50 of 0.0021 to 0.02 µM.
The same measure for `O=C1N(CC2CCCCC2)CCN1c1ccc(-c2cn[nH]c2)cc1` [Example 211, 1-(4-(1H-pyrazol-4-yl)phenyl)-3-(cyclohexylmethyl)imidazolidin-2-one]: 0.2 to 2 µM.
In the case of `COc1nc(N2CCN(Cc3ccccc3F)C2=O)ccc1-c1cn[nH]c1` [Example 244, 1-(2-fluorobenzyl)-3-(6-methoxy-5-(1H-pyrazol-4-yl)pyridin-2-yl)imidazolidin-2-one] it was 0.0021 to 0.02 µM; in that of `COc1nc(N2CCN(Cc3cccc(F)c3C)C2=O)ccc1-c1cn[nH]c1` [Example 248, 1-(3-fluoro-2-methylbenzyl)-3-(6-methoxy-5-(1H-pyrazol-4-yl)pyridin-2-yl)imidazolidin-2-one], below 0.002 µM.

Source of the values: patent US10123993B2, “Cyclic ureas as inhibitors of rock” (BRISTOL-MYERS SQUIBB COMPANY, priority 2015, dated 2018).
